Laboratory results taken from US8946397B1, “Tagged nucleosides that leave no scar upon cleavage” (priority 2011, dated 2015).
Read-outs that look alike come from different tables or passages of the source. Values belong to the molecule of their own block, whether it stands above or below them.

Columns and labels:
[1] = cited from earlier work
[2] = Elimination of scar from triphosphate-aldehyde, analyzed by ion-exchange HPLC; assay type: physicochemical; settings: 55° C.
Experimental: To develop the reagents for elimination of scar triphosphate-aldehyde which was obtained from the treatment of compound 17 with 10 mM NaIO4 was used as model compound. A variety of conditions were explored that might eliminate the scar and the reaction was analyzed by ion-exchange HPLC (buffer A: water; buffer B: 1M NH4HCO3; gradient 0˜35% B over 20 min).

Deep Vent (exo-) = Deep Vent (exo-) (Pyrococcus sp., UniProt Q51334, D141A/DEL493-1029/E143A); assay: Standing start primer-extension assay; assay type: biochemical; settings: 30 min incubation, triphosphate 100 μM, Template AA
Chain of Deep Vent (exo-) (Q51334 other isoform, or with tags, fused parts or gaps D141A/E143A/DEL493-1029): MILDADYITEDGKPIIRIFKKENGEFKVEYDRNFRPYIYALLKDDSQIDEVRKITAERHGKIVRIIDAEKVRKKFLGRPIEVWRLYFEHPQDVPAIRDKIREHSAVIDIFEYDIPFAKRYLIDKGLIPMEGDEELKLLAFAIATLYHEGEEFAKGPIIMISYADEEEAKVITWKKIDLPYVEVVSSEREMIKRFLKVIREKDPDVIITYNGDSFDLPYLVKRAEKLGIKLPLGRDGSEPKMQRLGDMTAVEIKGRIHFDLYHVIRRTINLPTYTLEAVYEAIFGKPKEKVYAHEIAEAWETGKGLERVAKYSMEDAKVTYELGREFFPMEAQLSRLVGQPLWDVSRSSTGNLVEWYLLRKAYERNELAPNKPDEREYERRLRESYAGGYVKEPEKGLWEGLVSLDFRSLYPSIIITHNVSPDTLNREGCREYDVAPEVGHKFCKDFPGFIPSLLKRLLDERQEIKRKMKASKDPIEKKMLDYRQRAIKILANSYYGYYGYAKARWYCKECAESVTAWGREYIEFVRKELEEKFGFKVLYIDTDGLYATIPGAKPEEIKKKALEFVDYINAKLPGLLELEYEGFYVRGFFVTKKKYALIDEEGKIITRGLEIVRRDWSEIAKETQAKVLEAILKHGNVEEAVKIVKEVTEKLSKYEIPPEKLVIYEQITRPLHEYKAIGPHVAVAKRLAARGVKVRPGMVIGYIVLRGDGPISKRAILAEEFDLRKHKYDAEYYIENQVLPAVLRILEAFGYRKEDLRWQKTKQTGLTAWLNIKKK
Experimental: (§1) Thirteen DNA polymerases and reverse transcriptases performing well last time were tested again for their abilities to incorporate the triphosphate carrying a Bodipy 576/589 fluor (FIG. 6). The incubation time was extended to 30 min to see the boundaries for the enzymes to still consume all the primer s without leading to N+2 bands.
(§2) Gamma-^32P-labeled primer (2.5 pmol), cold primer (22.5 pmol) and template (30 pmol) were annealed by incubation at 95° C. for 5 min in various reaction buffer and slowly cooled to room temperature, followed by the addition of various DNA polymerase and reverse transcriptases. The extension was initiated by adding MJK's nucleoside triphosphates (MJ-008-065) (final concentration of 100 μM). After 30 min, the reaction was quenched by 10 mM EDTA in formamide loading buffer (20 μL); products were resolved by 14% PAGE.

Bst DNA polymerases = target: T1, Bst DNA polymerases (Geobacillus stearothermophilus, UniProt P52026); assay: Standing start primer-extension assay; assay type: biochemical; settings: 30 min incubation, triphosphate 100 μM, Template AA
T1 sequence (P52026 1-876): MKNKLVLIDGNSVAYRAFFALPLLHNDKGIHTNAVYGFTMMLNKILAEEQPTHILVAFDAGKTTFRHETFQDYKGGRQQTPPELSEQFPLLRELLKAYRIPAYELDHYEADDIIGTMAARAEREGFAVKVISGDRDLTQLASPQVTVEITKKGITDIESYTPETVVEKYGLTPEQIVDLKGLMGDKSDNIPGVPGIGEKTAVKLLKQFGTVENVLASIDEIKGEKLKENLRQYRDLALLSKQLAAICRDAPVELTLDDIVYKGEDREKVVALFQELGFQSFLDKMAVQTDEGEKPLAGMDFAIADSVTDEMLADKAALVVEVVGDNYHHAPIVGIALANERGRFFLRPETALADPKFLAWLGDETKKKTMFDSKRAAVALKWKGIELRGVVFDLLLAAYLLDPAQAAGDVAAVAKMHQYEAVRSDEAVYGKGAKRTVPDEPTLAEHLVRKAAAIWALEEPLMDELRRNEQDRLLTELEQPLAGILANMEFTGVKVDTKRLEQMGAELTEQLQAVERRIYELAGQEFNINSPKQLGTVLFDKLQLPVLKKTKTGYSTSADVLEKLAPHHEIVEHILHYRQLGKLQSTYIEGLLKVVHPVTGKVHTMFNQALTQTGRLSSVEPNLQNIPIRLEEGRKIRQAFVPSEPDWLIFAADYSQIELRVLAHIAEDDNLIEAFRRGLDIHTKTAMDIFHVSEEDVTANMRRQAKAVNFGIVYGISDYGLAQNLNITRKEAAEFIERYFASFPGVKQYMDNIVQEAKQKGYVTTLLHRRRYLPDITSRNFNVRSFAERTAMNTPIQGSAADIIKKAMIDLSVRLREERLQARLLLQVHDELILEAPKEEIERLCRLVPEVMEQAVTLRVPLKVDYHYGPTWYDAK
Experimental: as §1, §2

[3] = tested on: DNA polymerases and reverse transcriptases; assay: Standing start primer-extension assay; assay type: biochemical
Experimental: FIG. 8. […] Subsequent removal of the side chain allows primer extension to continue. […] Incubation is for 2 min with the template primer combination.
as §1, §2

Molecule: Nc1ncnc2c([C@@H]3O[C@H](CO)[C@@H](O)[C@H]3O)[nH]nc12 [formycin A]
pKa ([1]; deprotonation of N7): 9.6

Molecule: O=c1[nH]cnc2c([C@@H]3O[C@H](CO)[C@@H](O)[C@H]3O)n[nH]c12 [formycin B]
pKa ([1]; deprotonation of N7): 10.4

Molecule: Nc1ncc([C@@H]2O[C@H](CO)[C@@H](O)[C@H]2O)c(=O)[nH]1 [pseudoisocytidine]
pKa ([1]; deprotonation of N3): 9.0

Molecule: O=c1[nH]cc([C@@H]2O[C@H](CO)[C@@H](O)[C@H]2O)c(=O)[nH]1 [pseudouridine]
pKa ([1]; cite of deprotonation unclear): 9.1

% Product ([2]; A: 100 mM glycine, pH 9.0, 10 min): 13%
% Product ([2]; A: 100 mM glycine, pH 9.0, 20 min): 20%
% Product ([2]; A: 100 mM glycine, pH 9.0, 30 min): 30%
% Product ([2]; A: 100 mM glycine, pH 10.0, 10 min): 35%
% Product ([2]; A: 100 mM glycine, pH 10.0, 20 min): 70%
% Product ([2]; A: 100 mM glycine, pH 10.0, 30 min): 87%
% Product ([2]; A: 100 mM glycine, pH 11.0, 10 min): 18%
% Product ([2]; A: 100 mM glycine, pH 11.0, 20 min): 52%
% Product ([2]; A: 100 mM glycine, pH 11.0, 30 min): 92%
% Product ([2]; B: 500 mM morpholine, pH 9.0, 10 min): 73%
% Product ([2]; B: 500 mM morpholine, pH 9.0, 20 min): 98%
% Product ([2]; B: 500 mM morpholine, pH 10.0, 10 min): 70%
% Product ([2]; B: 500 mM morpholine, pH 10.0, 20 min): 98%
% Product ([2]; B: 500 mM morpholine, pH 10.5, 10 min): 50%
% Product ([2]; B: 500 mM morpholine, pH 10.5, 20 min): 92%
% Product ([2]; B: 500 mM morpholine, pH 10.5, 30 min): 99%
% Product ([2]; B: 500 mM morpholine, pH 11.2, 10 min): 40%
% Product ([2]; B: 500 mM morpholine, pH 11.2, 20 min): 80%
% Product ([2]; B: 500 mM morpholine, pH 11.2, 30 min): 94%
% Product ([2]; C: 100 mM pyrrolidine, pH 9.0, 5 min): 32%
% Product ([2]; C: 100 mM pyrrolidine, pH 9.0, 10 min): 67%
% Product ([2]; C: 100 mM pyrrolidine, pH 10.0, 5 min): 90%
% Product ([2]; C: 100 mM pyrrolidine, pH 10.0, 10 min): 99%
% Product ([2]; C: 100 mM pyrrolidine, pH 11.0, 5 min): 99%
% Product ([2]; C: 100 mM pyrrolidine, pH 11.0, 10 min): 99%
Molecule: O=CCCn1cc([C@H]2C[C@H](O)[C@@H](COP(=O)(O)OP(=O)(O)OP(=O)(O)O)O2)c(=O)[nH]c1=O [triphosphate-aldehyde]

Molecule: BODIPY 576/589 Labeled 1-(5-amino-3,4-dihydroxypentyl)-2′-deoxy-pseudouridine-5′-triphosphate [Compound 18]
N+2 products (Deep Vent (exo-)): only trace amount
N+2 products (Bst DNA polymerases): only trace amount
extension of a primer on a template calling for two consecutive T analogs ([3]; 2 min incubation, no 3′-ONH2 group (FIG. 8)): stops with certain of the indicated polymerases after the addition of one T analog
consume all the primer without leading to N+2 bands ([3]; thirteen enzymes, 30 min incubation, triphosphate 100 μM, Template AA): most of the polymerases and reverse transcriptases might achieve this goal
